Where two headings read alike, the source gives them in different places. Blank lines part the entries; values can stand above or below the molecule they belong to.
How the values were obtained:
TMD-8 = test: In-vitro antitumor activity assay (CellTiter-Glo cell antiproliferative activity); assay type: cell-based; settings: Homo sapiens, TMD8, TMD-8 cells, 72 h
Method: In-Vitro Antitumor Activity Assay
Method: Reagent and procedure by Hefei PreceDo pharmaceuticals Co. Ltd.
Cell antiproliferative activity was evaluated by the CellTiter-Glo (Promega, USA) assay. Make 1000× compounds solution in DMSO, add 1 μl 1000× compounds to […] growth medium to make 20× compounds. Dilute cell suspensions in growth medium to desired density and 95 μl were taken to 96-well plate. Add 5 μl 20× compounds into 96-well plate according to the plate map. Final DMSO concentration in each well was 0.1%. Then the cell was incubated at 37° C., 5% CO2 for 72 h. Equilibrate the assay plate to room temperature before measurement. Add 20 μl of CellTiter-Glo© Reagent into each well. Mix contents for 2 minutes on an orbital shaker to induce cell lysis. Incubate at room temperature for 10 minutes to stabilize luminescent signal. Record luminescence using EnVision Multilabel Reader (PerkinElmer). Cell viability (CV %) was calculated relative to vehicle (DMSO) treated control wells using following formula: Cell viability (%)=(RLU compound−RLU blank)/(RLU control−RLU blank)*100%. The IC50 values were calculated using GraphPad Prism 6.0 software, fitting to a 4-parameter equation to generate concentration response curves. All assays were conducted with three parallel samples and three repetitions.

[1] = Rat pharmacokinetic assay; assay type: in vivo
Method: Rat Pharmacokinetic Assay
Method: Reagent and Procedure by Hefei PreceDo Pharmaceuticals Co. Ltd.
Male Sprague-Dawley rats with 6-8 weeks of age were purchased from Beijing Vital River Laboratory Animal Technology Co., Ltd. Rats were randomly assigned with three rats per group. A single dose of compound 84 or 85 was administered by tail vein injection in iv group. In po group, compound 84 or 85 was orally. Blood samples (˜0.25 mL) were obtained by orbital venous plexus at 2 min (iv only), 5 min, 15 min, 1 h, 2 h, 4 h, 6 h, 8 h, 12 h and 24 h (po only) post dose. After centrifuged at 4000 rpm for 10 min at 4° C., plasma was collected and stored at −20° C. until determine by LC-MS/MS.

EGFR = EGFR (Homo sapiens (Human), UniProt P00533); test: In house ELISA kinase inhibition assay, EGFR; assay type: biochemical; settings: for IC50: in house ELISA; for Selectivity ratio: selectivity for BTK and EGFR
Chain of EGFR (P00533 25-1210): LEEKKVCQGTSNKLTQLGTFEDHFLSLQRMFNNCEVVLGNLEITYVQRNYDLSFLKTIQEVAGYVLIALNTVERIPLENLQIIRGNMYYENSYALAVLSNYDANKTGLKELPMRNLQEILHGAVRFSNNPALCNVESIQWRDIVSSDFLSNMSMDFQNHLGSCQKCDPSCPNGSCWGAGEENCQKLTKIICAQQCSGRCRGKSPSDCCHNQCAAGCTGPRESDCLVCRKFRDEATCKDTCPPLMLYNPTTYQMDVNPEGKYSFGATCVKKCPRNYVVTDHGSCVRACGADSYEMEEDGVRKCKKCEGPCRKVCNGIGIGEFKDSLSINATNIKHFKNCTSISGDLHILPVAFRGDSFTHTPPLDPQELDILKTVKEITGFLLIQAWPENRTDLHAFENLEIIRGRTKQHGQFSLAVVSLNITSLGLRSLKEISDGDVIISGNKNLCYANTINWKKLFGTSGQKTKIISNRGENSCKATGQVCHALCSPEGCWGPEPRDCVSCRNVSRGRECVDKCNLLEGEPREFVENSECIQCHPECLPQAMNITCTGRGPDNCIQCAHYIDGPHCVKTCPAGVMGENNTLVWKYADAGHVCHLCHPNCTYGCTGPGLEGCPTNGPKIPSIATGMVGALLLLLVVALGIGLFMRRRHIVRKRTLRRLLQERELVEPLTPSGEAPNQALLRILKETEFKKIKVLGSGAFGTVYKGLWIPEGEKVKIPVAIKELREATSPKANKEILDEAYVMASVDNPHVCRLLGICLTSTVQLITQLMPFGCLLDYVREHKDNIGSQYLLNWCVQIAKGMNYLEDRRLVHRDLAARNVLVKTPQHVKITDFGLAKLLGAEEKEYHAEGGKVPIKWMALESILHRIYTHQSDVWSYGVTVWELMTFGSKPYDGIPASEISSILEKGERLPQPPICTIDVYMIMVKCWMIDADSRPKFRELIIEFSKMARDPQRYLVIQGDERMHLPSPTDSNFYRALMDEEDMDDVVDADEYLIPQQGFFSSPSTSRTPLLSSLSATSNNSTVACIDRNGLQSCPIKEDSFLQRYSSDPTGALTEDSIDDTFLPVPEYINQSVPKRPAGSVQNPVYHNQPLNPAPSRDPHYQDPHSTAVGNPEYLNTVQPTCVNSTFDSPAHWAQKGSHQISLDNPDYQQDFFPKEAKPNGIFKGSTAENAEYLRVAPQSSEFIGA
Method: (§1) BTK inhibition Assay and selectivity Assay The assay was conducted either a by a third party (Reaction Biology Corporation, PA, USA) or in house.
(§2) b) In House Procedure for BTK, BMX, EGFR and ITK:
(§3) Kinase inhibitory activities of compounds were evaluated using the Enzyme-linked immunosorbent assay (ELISA). The kinase enzyme of BTK, BMX, EGFR and ITK were purchased from Carna Bioscience (Kobe, Japan). A total of 10 ng/mL antiphosphotyrosine (PY713) antibody (abcam, Cambridge Science Park, UK) was precoated in 96-well ELISA plates. The kinase enzymes in each reaction well were set to BTK (101.25 ng/mL), BMX (90 ng/mL), EGFR (90 ng/mL) or ITK (120 ng/mL) and incubated with indicated drugs in 1× reaction buffer (50 mmol/L HEPES pH 7.4, 20 mmol/L MgCl2, 0.1 mmol/L MnCl2, 1 mmol/L DTT) containing 20 μmol/L (the final concentration of substrate in ITK reaction was 30 μmol/L) substrate (NH2-[…]-biotin) at 25° C. for 1 h. Then, a total of 3 μmol/L ATP was added and the reaction was continued for 2 h. The products of reaction were transferred into 96-well ELISA plates containing antibody and incubated at 25° C. for 30 min. After incubation, the wells were washed with PBS and then incubated with horseradish peroxidase (HRP)-conjugated streptavidin. The wells were visualized using 3,3′,5,5′-tetramethylbenzidine (TMB), and chromogenic reaction was ended with 2 mol/L H2SO4, the absorbance was read with a multimode plate reader (PerkinElmer, USA) at 450 nm. IC50 values and curve fits were obtained using Prism (GraphPad Software). (Table I-IV)

ITK = ITK (Homo sapiens (Human), UniProt Q08881); test: In house ELISA kinase inhibition assay, ITK; assay type: biochemical; settings: for IC50: in house ELISA; for Selectivity ratio: selectivity for BTK and ITK
Chain of ITK (Q08881 whole entry): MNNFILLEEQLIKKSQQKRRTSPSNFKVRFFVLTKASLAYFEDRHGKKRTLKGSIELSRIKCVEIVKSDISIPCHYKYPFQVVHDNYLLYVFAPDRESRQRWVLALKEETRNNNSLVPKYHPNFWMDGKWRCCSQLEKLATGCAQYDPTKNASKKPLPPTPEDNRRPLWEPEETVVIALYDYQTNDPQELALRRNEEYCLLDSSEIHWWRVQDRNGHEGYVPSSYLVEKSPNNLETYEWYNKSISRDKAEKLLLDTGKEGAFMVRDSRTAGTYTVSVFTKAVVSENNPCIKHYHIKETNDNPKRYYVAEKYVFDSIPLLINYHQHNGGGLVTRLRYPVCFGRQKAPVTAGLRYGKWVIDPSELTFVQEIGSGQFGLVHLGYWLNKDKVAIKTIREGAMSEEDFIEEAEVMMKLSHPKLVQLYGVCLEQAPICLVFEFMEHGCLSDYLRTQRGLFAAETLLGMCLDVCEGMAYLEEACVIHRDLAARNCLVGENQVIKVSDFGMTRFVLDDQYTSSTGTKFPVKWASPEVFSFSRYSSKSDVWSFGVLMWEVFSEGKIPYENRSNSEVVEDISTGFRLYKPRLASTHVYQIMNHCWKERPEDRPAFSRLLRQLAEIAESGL
Method: as §1, §2, §3

BTK = BTK (Homo sapiens (Human), UniProt Q06187); test: In house ELISA kinase inhibition assay, BTK; assay type: biochemical; settings: footnote b: from in house procedure (ELISA)
Chain of BTK (Q06187 whole entry): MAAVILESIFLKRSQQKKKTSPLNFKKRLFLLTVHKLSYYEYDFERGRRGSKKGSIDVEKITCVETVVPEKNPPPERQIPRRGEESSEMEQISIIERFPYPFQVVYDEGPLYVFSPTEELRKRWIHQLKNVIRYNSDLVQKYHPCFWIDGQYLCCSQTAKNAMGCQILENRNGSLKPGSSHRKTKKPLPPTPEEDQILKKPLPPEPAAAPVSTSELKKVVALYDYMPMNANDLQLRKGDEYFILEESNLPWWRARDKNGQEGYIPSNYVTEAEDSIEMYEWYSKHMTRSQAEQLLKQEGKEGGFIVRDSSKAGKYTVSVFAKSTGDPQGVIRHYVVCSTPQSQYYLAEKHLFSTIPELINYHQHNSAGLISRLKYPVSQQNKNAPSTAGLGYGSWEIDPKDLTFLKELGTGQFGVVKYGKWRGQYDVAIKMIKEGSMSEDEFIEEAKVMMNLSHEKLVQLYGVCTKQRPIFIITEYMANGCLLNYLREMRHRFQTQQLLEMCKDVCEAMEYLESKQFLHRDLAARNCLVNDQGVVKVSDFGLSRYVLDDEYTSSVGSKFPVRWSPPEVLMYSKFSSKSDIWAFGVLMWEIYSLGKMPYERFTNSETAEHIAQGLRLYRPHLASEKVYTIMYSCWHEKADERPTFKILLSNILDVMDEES
Outline: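 ELISA with biotinylated peptide substrate at 20 μmol/L (ITK 30 μmol/L); kinases preincubated with compound 1 h at 25° C in HEPES pH 7.4, MgCl2, MnCl2, DTT, then 3 μmol/L ATP added for 2 h. Phosphoproduct captured on anti-phosphotyrosine antibody, detected with HRP-streptavidin/TMB at 450 nm; IC50 by curve fit.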

BMX = BMX (Homo sapiens (Human), UniProt P51813); test: In house ELISA kinase inhibition assay, BMX; assay type: biochemical; settings: for IC50: in house ELISA; for Selectivity ratio: selectivity for BTK and BMX
Chain of BMX (P51813 whole entry): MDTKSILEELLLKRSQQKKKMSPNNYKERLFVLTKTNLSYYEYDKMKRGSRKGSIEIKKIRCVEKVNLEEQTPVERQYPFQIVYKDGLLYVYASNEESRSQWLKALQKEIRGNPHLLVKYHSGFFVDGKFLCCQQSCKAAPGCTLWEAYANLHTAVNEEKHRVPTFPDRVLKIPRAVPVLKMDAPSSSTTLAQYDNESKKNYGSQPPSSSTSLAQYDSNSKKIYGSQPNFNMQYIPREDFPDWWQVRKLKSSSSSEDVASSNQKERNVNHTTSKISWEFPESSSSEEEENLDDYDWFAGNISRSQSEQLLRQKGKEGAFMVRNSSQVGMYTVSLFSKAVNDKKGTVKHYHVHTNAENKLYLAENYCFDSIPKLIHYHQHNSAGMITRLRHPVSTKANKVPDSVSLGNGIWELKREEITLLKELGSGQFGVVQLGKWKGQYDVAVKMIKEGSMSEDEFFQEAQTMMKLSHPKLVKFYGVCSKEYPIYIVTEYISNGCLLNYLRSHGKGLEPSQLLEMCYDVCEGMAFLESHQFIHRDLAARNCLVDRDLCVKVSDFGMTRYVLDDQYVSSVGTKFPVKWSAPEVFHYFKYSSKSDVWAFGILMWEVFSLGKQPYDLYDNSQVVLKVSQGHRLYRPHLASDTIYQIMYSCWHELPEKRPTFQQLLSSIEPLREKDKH
Method: as §1, §2, §3

[2] = male, Sprague-Dawley, plasma, iv 5 mg/kg
[3] = male, Sprague-Dawley, plasma, iv 1 mg/kg

SMILES: C=CC(=O)N1CCCC[C@H]1c1nc(-c2ccc(C(=O)Nc3cc(C(F)(F)F)ccn3)cc2)c(C(N)=O)n1N [Example 84, (S)-2-(1-acryloylpiperidin-2-yl)-1-amino-4-(4-((4-(trifluoromethyl)pyridin-2-yl)carbamoyl)phenyl)-1H-imidazole-5-carboxamide]
- IC50 (TMD-8): 24.5 nM
- CL ([1]; iv 5 mg/kg): 13.4 mL/min/kg
- T1/2 ([1]; iv 5 mg/kg): 1.32 h
- Vd ([1]; iv 5 mg/kg): 1.50 L/kg
- clearance [1, 2]: 13.4 mL/min/kg
- half-life [1, 2]: 1.32 h
- AUC ([1]; male, Sprague-Dawley, plasma, po 5 mg/kg, read-out: AUC): 2000 ng·h/mL
- Cmax ([1]; male, Sprague-Dawley, plasma, po 5 mg/kg, read-out: Cmax): 501 ng/mL
- AUC ([1]; po 5 mg/kg): 1996 ng·h/mL
- Cmax ([1]; po 5 mg/kg): 501 ng/mL
- F ([1]; po 5 mg/kg): 32.4%
- T1/2 ([1]; po 5 mg/kg): 1.35 h
- IC50 (EGFR): 156 nM
- Selectivity ratio (EGFR): 45
- IC50 (ITK): 608 nM
- Selectivity ratio (ITK): 175.6
- IC50 (BTK): 3.46 nM
- IC50 (BMX): 114 nM
- Selectivity ratio (BMX): 33.0

- IC50 (TMD-8): 54.3 nM
- clearance [1, 3]: 50 mL/min/kg
- half-life [1, 3]: 1.97 h
- Vd ([1]; male, Sprague-Dawley, plasma, iv 1 mg/kg, read-out: Vd): 8.62 L/kg
- half-life ([1]; male, Sprague-Dawley, plasma, po 10 mg/kg): 2.74 h
- AUC ([1]; male, Sprague-Dawley, plasma, po 10 mg/kg, read-out: AUC): 3250 ng·h/mL
- Cmax ([1]; male, Sprague-Dawley, plasma, po 10 mg/kg, read-out: Cmax): 723 ng/mL
- AUC ([1]; po 10 mg/kg): 3247 ng·h/mL
- F ([1]; po 10 mg/kg): 90.6%
- T1/2 ([1]; po 10 mg/kg): 2.74 h
- IC50 (EGFR): 11800 nM
- Selectivity ratio (EGFR): 1619
- IC50 (ITK): 30000 nM
- Selectivity ratio (ITK): 4115
- IC50 (BTK): 7.29 nM
- IC50 (BMX): 789 nM
- Selectivity ratio (BMX): 108.2
SMILES: CC#CC(=O)N1CCCC[C@H]1c1nc(-c2ccc(C(=O)Nc3cc(C(F)(F)F)ccn3)cc2)c(C(N)=O)n1N [Example 85, (S)-1-amino-2-(1-(but-2-ynoyl)piperidin-2-yl)-4-(4-((4-(trifluoromethyl)pyridin-2-yl)carbamoyl)phenyl)-1H-imidazole-5-carboxamide]

Reference: patent US12291516B2, “Substituted 1-amino-1H-imidazole-5-carboxamide as Bruton's tyrosine kinase inhibitors” (Henan Zhiwei Biomedicine Co., Ltd., priority 2019, dated 2025)
